Measurements reported in PMC4639751, “Development of 1-N-^11C-Methyl-L- and -D-Tryptophan for pharmacokinetic imaging of the immune checkpoint inhibitor 1-Methyl-Tryptophan” (Scientific Reports, 2015).

Columns and labels:
[1] = parameters: method as in PMID 17234791; details: compared with the other isomer; cited from earlier work
[2] = Ex vivo biodistribution studies; details: SD rats; for Biodistribution, radioactivity in Kidney / Biodistribution, radioactivity in Blood / Biodistribution, radioactivity in Brain / Biodistribution, radioactivity in Heart / Biodistribution, radioactivity in Intestine / Biodistribution, radioactivity in Liver / Biodistribution, radioactivity in Lung / Biodistribution, radioactivity in Muscle / Biodistribution, radioactivity in Pancreas / Biodistribution, radioactivity in Spleen: mean ± SEM, n = 4
Description: Major organs and tissues (blood, heart, lung, liver, pancreas, spleen, kidney, intestine, muscle, and brain), were promptly excised, harvested, and weighed. Radioactivity was counted using a γ-counter and expressed as a percentage of the injected dose per gram of wet tissue (%ID/g). All radioactivity measurements were corrected for decay.

[3] = PET, rats; for SUV in the kidney: mean ± SEM, four rats
Experimental: Emission scans were acquired in three-dimensional list mode with an energy window of 350–650 keV under isoflurane anesthesia, from 0 to 60 min after radioprobe administration. All list-mode acquisition data were sorted into three-dimensional sinograms, which were then Fourier-rebinned into two-dimensional sonograms (frames × min: 4 × 1, 8 × 2, 8 × 5), and corrections for scanner dead time, randoms, and decay of the injected radioprobe. Dynamic images were reconstructed with filtered back-projection using a Hanning filter and a Nyquist cut-off of 0.5 cycles/pixel. Immediately after completion of PET scans, contrast-enhanced CT scans were performed in the rats by using the small-animal CT system (R_mCT2; Rigaku, Tokyo) after injection of 1 mL of non-ionic contrast medium (Iopamiron 370, Bayer, Osaka). The scan conditions included radiation parameters of 200 μA and 90 kV, FOV of 60 mm, and acquisition time of 34 s. CT images were collected, reconstructed, and observed using I-View-R software (Rigaku, The Woodlands, TX). Averaged CT attenuation images and dynamic PET images were reconstructed and fused using the Siemens Inveon Research Workplace (IRW) 4.0 software.
Regions of interest (ROI) in major organs and tissues were drawn in the PET/CT fusion images by manual outlining the organs and tissues in the CT images throughout the image slices by using IRW 4.0 software. The average radioactivity concentration was obtained from mean pixel values in the ROI volume. Regional uptake of radioactivity was decay-corrected to the injection time and expressed as the standardized uptake value (SUV), normalized for injected radioactivity and body weight. SUV was calculated as SUV = (radioactivity per cubic centimeter tissue/injected radioactivity) × body weight in grams. TACs of the radioprobes in individual organ and tissue were determined. Values of area under time-activity curves (AUC2–60 min, SUV × min) were calculated from 2 to 60 min post-injection to minimize the early perfusion effects.

[4] = In vitro stability assay in rat plasma; assay type: in vitro ADME; details: 37 °C, 90 min incubation, HPLC analysis
Experimental: To determine the in vitro property of the two newly-developed radioprobes, we performed plasma stability studies by HPLC analysis at 37 °C for 90 min. […] More than 95% of ^11C-L-1Mtrp and ^11C-D-1Mtrp remained intact and no detectable metabolites were found at least 90 min after plasma incubation in vitro.
^11C-L-1MTrp and ^11C-D-1MTrp (70–74 MBq, 0.4−0.6 nmol) was dissolved in 2 mL of freshly isolated rat plasma and incubated at 37 °C for 90 min. After 0, 30, 60 and 90 min, an aliquot of 300 μL incubated mixture was taken, proteins in plasma were precipitated with equal volumes of 1 M HClO4 solution, followed by centrifugation at 15000 rpm for 2 min at 4 °C. The supernatant was collected and analyzed by HPLC (Capcell Pack UG80 column, 4.6 mm i.d. × 250 mm) with […] phosphate buffer/CH3CN (8.5/1.5, v/v) at a flow rate of 1 mL/min.

[5] = Ex vivo metabolite studies; assay type: in vivo; details: SD rats; for Ex vivo metabolite analysis, % of tailored L- and D-1MTrp entity in Brain / Ex vivo metabolite analysis, % of tailored L- and D-1MTrp entity in Pancreas / Ex vivo metabolite analysis, % of tailored L- and D-1MTrp entity in Plasma: HPLC, mean ± SEM, n = 4
Experimental: To validate the derivation of radioactivity into the relevant organs and tissues, we assessed the metabolites of both radiolabelled isomers in the blood, brain, and pancreas of rats. […] Few radioactive metabolites were detected in these three tissues at 15 and 60 min after ^11C-L-1MTrp and ^11C-D-1MTrp injection.
SD rats were injected with ^11C-L-1MTrp or ^11C-D-1MTrp (70–74 MBq, 0.4–0.6 nmol) via a lateral tail vein. The animals were sacrificed by cervical dislocation at 15 and 60 min after the injection. Blood was collected and centrifuged at 15000 rpm for 2 min at 4 °C to separate the plasma. Brain and pancreas were rapidly removed, then homogenized in equal volumes of 1 M HClO4 solution with a Silent Crusher S homogenizer (Heidolph Instruments). Plasma and homogenates of brain and pancreas from rats were deproteinized and then analyzed by HPLC as described in the stability assay in vitro.

Question: Which “Antitumor activity in in vivo studies” value [1] does the source give for Cn1cc(C[C@@H](N)C(=O)O)c2ccccc21 [D-1MTrp, 1-Methyl-D-tryptophan, reference compound] here?
Answer: superior antitumor activity

Question: What about the “Biodistribution, radioactivity in Kidney” value ([2]; 60 min after injection) of the same molecule?
Answer: 1.16 %ID/g tissue

Question: What about the “SUV in the kidney” value ([3]; 60 min after injection) of the same molecule?
Answer: 1.79

Question: With [11CH3]n1cc(C[C@@H](N)C(=O)O)c2ccccc21 [^11C-D-1MTrp, 1-N-^11C-methyl-D-tryptophan] as the molecule, how does the “Biodistribution, radioactivity in Blood” value ([2]; 1 min after injection) read?
Answer: 1.47 ± 0.02 %ID/g tissue

Question: And the “Biodistribution, radioactivity in Brain” value ([2]; 1 min after injection)?
Answer: 0.04 ± 0.00 %ID/g tissue

Question: And the “Biodistribution, radioactivity in Heart” value ([2]; 1 min after injection)?
Answer: 0.58 ± 0.02 %ID/g tissue

Question: And the “Biodistribution, radioactivity in Intestine” value (shortened to “Biodistribution … in Intestine”) ([2]; 1 min after injection)?
Answer: 0.93 ± 0.02 %ID/g tissue

Question: And the “Biodistribution, radioactivity in Liver” value ([2]; 1 min after injection)?
Answer: 1.24 ± 0.03 %ID/g tissue

Question: And the “Biodistribution, radioactivity in Lung” value ([2]; 1 min after injection)?
Answer: 0.79 ± 0.03 %ID/g tissue

Question: What about the “Biodistribution, radioactivity in Muscle” value ([2]; 1 min after injection) of the same molecule?
Answer: 0.12 ± 0.00 %ID/g tissue

Question: And the “Biodistribution, radioactivity in Pancreas” value (from here on “Biodistribution … in Pancreas”) ([2]; 1 min after injection)?
Answer: 0.76 ± 0.07 %ID/g tissue

Question: What about the “Biodistribution, radioactivity in Spleen” value ([2]; 1 min after injection) of the same molecule?
Answer: 0.62 ± 0.02 %ID/g tissue

Question: What about the “Biodistribution, radioactivity in Blood” value ([2]; 5 min after injection) of the same molecule?
Answer: 0.79 ± 0.03 %ID/g tissue

Question: And the “Biodistribution, radioactivity in Brain” value ([2]; 5 min after injection)?
Answer: 0.05 ± 0.01 %ID/g tissue

Question: And the “Biodistribution, radioactivity in Heart” value ([2]; 5 min after injection)?
Answer: 0.55 ± 0.02 %ID/g tissue

Question: What about the “Biodistribution … in Intestine” value ([2]; 5 min after injection) of the same molecule?
Answer: 0.68 ± 0.02 %ID/g tissue

Question: What about the “Biodistribution, radioactivity in Liver” value ([2]; 5 min after injection) of the same molecule?
Answer: 0.97 ± 0.02 %ID/g tissue

Question: What about the “Biodistribution, radioactivity in Lung” value ([2]; 5 min after injection) of the same molecule?
Answer: 0.60 ± 0.02 %ID/g tissue

Question: And the “Biodistribution, radioactivity in Muscle” value ([2]; 5 min after injection)?
Answer: 0.26 ± 0.01 %ID/g tissue

Question: What about the “Biodistribution … in Pancreas” value ([2]; 5 min after injection) of the same molecule?
Answer: 1.03 ± 0.15 %ID/g tissue

Question: And the “Biodistribution, radioactivity in Spleen” value ([2]; 5 min after injection)?
Answer: 0.51 ± 0.02 %ID/g tissue

Question: What about the “Biodistribution, radioactivity in Blood” value ([2]; 15 min after injection) of the same molecule?
Answer: 0.49 ± 0.01 %ID/g tissue

Question: And the “Biodistribution, radioactivity in Brain” value ([2]; 15 min after injection)?
Answer: 0.08 ± 0.00 %ID/g tissue

Question: What about the “Biodistribution, radioactivity in Heart” value ([2]; 15 min after injection) of the same molecule?
Answer: 0.52 ± 0.02 %ID/g tissue

Question: What about the “Biodistribution … in Intestine” value ([2]; 15 min after injection) of the same molecule?
Answer: 0.53 ± 0.00 %ID/g tissue

Question: What about the “Biodistribution, radioactivity in Kidney” value ([2]; 15 min after injection) of the same molecule?
Answer: 3.66 ± 0.15 %ID/g tissue

Question: And the “Biodistribution, radioactivity in Liver” value ([2]; 15 min after injection)?
Answer: 0.64 ± 0.01 %ID/g tissue

Question: What about the “Biodistribution, radioactivity in Lung” value ([2]; 15 min after injection) of the same molecule?
Answer: 0.46 ± 0.02 %ID/g tissue

Question: What about the “Biodistribution, radioactivity in Muscle” value ([2]; 15 min after injection) of the same molecule?
Answer: 0.35 ± 0.01 %ID/g tissue

Question: And the “Biodistribution … in Pancreas” value ([2]; 15 min after injection)?
Answer: 1.01 ± 0.06 %ID/g tissue

Question: And the “Biodistribution, radioactivity in Spleen” value ([2]; 15 min after injection)?
Answer: 0.48 ± 0.01 %ID/g tissue

Question: What about the “Biodistribution, radioactivity in Blood” value ([2]; 30 min after injection) of the same molecule?
Answer: 0.40 ± 0.01 %ID/g tissue

Question: And the “Biodistribution, radioactivity in Brain” value ([2]; 30 min after injection)?
Answer: 0.11 ± 0.00 %ID/g tissue

Question: And the “Biodistribution, radioactivity in Heart” value ([2]; 30 min after injection)?
Answer: 0.42 ± 0.02 %ID/g tissue

Question: What about the “Biodistribution … in Intestine” value ([2]; 30 min after injection) of the same molecule?
Answer: 0.40 ± 0.01 %ID/g tissue

Question: What about the “Biodistribution, radioactivity in Kidney” value ([2]; 30 min after injection) of the same molecule?
Answer: 2.12 ± 0.16 %ID/g tissue

Question: What about the “Biodistribution, radioactivity in Liver” value ([2]; 30 min after injection) of the same molecule?
Answer: 0.47 ± 0.01 %ID/g tissue

Question: What about the “Biodistribution, radioactivity in Lung” value ([2]; 30 min after injection) of the same molecule?
Answer: 0.37 ± 0.01 %ID/g tissue

Question: What about the “Biodistribution, radioactivity in Muscle” value ([2]; 30 min after injection) of the same molecule?
Answer: 0.38 ± 0.03 %ID/g tissue

Question: What about the “Biodistribution … in Pancreas” value ([2]; 30 min after injection) of the same molecule?
Answer: 1.21 ± 0.05 %ID/g tissue

Question: And the “Biodistribution, radioactivity in Spleen” value ([2]; 30 min after injection)?
Answer: 0.40 ± 0.02 %ID/g tissue

Question: What about the “Biodistribution, radioactivity in Blood” value ([2]; 60 min after injection) of the same molecule?
Answer: 0.32 ± 0.01 %ID/g tissue

Question: What about the “Biodistribution, radioactivity in Brain” value ([2]; 60 min after injection) of the same molecule?
Answer: 0.15 ± 0.01 %ID/g tissue

Question: What about the “Biodistribution, radioactivity in Heart” value ([2]; 60 min after injection) of the same molecule?
Answer: 0.30 ± 0.01 %ID/g tissue

Question: What about the “Biodistribution … in Intestine” value ([2]; 60 min after injection) of the same molecule?
Answer: 0.32 ± 0.01 %ID/g tissue

Question: What about the “Biodistribution, radioactivity in Kidney” value ([2]; 60 min after injection) of the same molecule?
Answer: 1.16 ± 0.03 %ID/g tissue

Question: What about the “Biodistribution, radioactivity in Liver” value ([2]; 60 min after injection) of the same molecule?
Answer: 0.37 ± 0.01 %ID/g tissue

Question: And the “Biodistribution, radioactivity in Lung” value ([2]; 60 min after injection)?
Answer: 0.28 ± 0.01 %ID/g tissue

Question: What about the “Biodistribution, radioactivity in Muscle” value ([2]; 60 min after injection) of the same molecule?
Answer: 0.33 ± 0.01 %ID/g tissue

Question: And the “Biodistribution … in Pancreas” value ([2]; 60 min after injection)?
Answer: 1.03 ± 0.06 %ID/g tissue

Question: And the “Biodistribution, radioactivity in Spleen” value ([2]; 60 min after injection)?
Answer: 0.32 ± 0.01 %ID/g tissue

Question: And the “Measured uptake in organs other than kidneys and pancreas” value ([2]; 60 min after radioprobe injection, span over organs)?
Answer: 0.15−0.37 % ID/g

Question: What about the “Fraction remaining intact in rat plasma” value [4] of the same molecule?
Answer: More than 95%

Question: And the “SUV in the kidney” value ([3]; 60 min after injection)?
Answer: 1.79 ± 0.07

Question: What about the “SUV in the other organs (other than kidneys)” value ([3]; 60 min after injection, span over organs) of the same molecule?
Answer: 0.20−0.61

Question: What about the “Maximum accumulation (SUV) in the kidneys” value ([3]; within 5 min after administration) of the same molecule?
Answer: 6.03 ± 0.43

Question: And the “Radioactivity in the brain, pancreas, and blood associated with L- and D-1MTrp” value ([5]; 15 and 60 min after injection)?
Answer: more than 94%

Question: What about the “Ex vivo metabolite analysis, % of tailored L- and D-1MTrp entity in Brain” value ([5]; 15 min after injection) of the same molecule?
Answer: 95.06 ± 0.38%

Question: What about the “Ex vivo metabolite analysis, % of tailored L- and D-1MTrp entity in Pancreas” value ([5]; 15 min after injection) of the same molecule?
Answer: 94.08 ± 0.51%

Question: What about the “Ex vivo metabolite analysis, % of tailored L- and D-1MTrp entity in Plasma” value ([5]; 15 min after injection) of the same molecule?
Answer: 94.45 ± 0.03%

Question: What about the “Ex vivo metabolite analysis, % of tailored L- and D-1MTrp entity in Brain” value ([5]; 60 min after injection) of the same molecule?
Answer: 98.16 ± 0.47%

Question: What about the “Ex vivo metabolite analysis, % of tailored L- and D-1MTrp entity in Pancreas” value ([5]; 60 min after injection) of the same molecule?
Answer: 96.31 ± 0.48%

Question: What about the “Ex vivo metabolite analysis, % of tailored L- and D-1MTrp entity in Plasma” value ([5]; 60 min after injection) of the same molecule?
Answer: 98.81 ± 0.25%
